Residues, ends and D or L forms follow the SMILES beside them.
Biological target: HLA-A*02:01 (Homo sapiens, UniProt P04439, D140Y/D185E/D98H/E176V/E277Q/G131W/G231S/I119V/I121R/I166T/I218V/L300P/L318F/N151K/N90K/P208A/P217A/Q86G/Q94H/R138H/R169H/T345S)
Assay: Competition-based peptide binding assay on EBV-LCL48 cells

Row | Compound | IC50
1 | CC[C@H](C)[C@H](NC(=O)[C@@H](N)Cc1ccc(O)cc1)C(=O)N[C@@H](Cc1ccc(O)cc1)C(=O)N[C@@H](CC(N)=O)C(=O)N[C@@H](CCCNC(=N)N)C(=O)N[C@@H](CCC(=O)O)C(=O)N[C@@H](CCC(=O)O)C(=O)N[C@@H](CC(C)C)C(=O)N[C@H](C(=O)O)C(C)C (H-YIYNREELV-OH) | 3.9 µM
2 | CC[C@H](C)[C@H](NC(=O)[C@@H](N)Cc1ccc(O)cc1)C(=O)N[C@@H](Cc1ccc(O)cc1)C(=O)N[C@@H](CC(N)=O)C(=O)N[C@@H](CCCNC(=N)N)C(=O)N[C@@H](CCC(=O)O)C(=O)N[C@@H](CCC(=O)O)C(=O)N[C@@H](Cc1ccccc1)C(=O)N[C@H](C(=O)O)C(C)C (H-YIYNREEFV-OH) | 4.9 µM

Reference: article PMC11166409 (Transfusion Medicine and Hemotherapy, 2024)
